{"source": "patent US9035021B2", "about": "“Somatostatin analogues” (Novartis AG, priority 2001, dated 2015)", "key": {"[1]": {"assay": "Plasma half-life", "type": "in vivo", "conditions": "read-out: Elimination half-life", "method": "Compound A has a beneficial plasma half-life. It has an elimination half-life between 15 and 30 hours."}, "[2]": {"target": "hsst1 (Homo sapiens, UniProt P30872)", "sequence (P30872 whole entry)": "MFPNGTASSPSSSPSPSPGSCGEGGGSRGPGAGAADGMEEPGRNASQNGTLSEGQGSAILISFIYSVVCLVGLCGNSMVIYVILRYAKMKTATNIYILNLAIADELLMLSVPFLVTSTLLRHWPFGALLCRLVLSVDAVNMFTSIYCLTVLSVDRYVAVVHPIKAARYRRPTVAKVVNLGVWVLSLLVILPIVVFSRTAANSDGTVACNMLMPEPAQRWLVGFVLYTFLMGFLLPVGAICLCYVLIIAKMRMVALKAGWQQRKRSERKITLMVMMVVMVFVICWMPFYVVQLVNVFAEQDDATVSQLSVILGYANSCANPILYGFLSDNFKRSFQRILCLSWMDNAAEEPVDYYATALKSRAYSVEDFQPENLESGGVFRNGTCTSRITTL", "assay": "biochemical", "description": "The binding assays may be carried out as disclosed hereunder using membranes from cell lines expressing selectively and stably hsst1, hsst2, hsst3, hsst4 or hsst5, e.g. CHO or COS cells.\nMembranes prepared from hsst selective cell lines, e.g. CHO or COS cells stably expressing hsst1 or hsst2 or hsst3 or hsst4 or hsst5 are incubated in triplicate in a total volume of 300 μl at 22° C. for 30 min with increasing concentrations of [^125I-Tyr^11]-SRIF-14 in 10 mmol/l Hepes buffer (pH 7.6) containing 0.5% BSA. The incubation is terminated by rapid filtration and the filters are counted in a counter. Specific binding is total binding minus non-specific binding in the presence of 1 μmol/l somatostatin-14. The experiments are carried out in triplicate. The affinity constant (KD) and number of binding sites are calculated using appropriate statistics and graphical programs."}, "[3]": {"target": "growth hormone secretagogue receptors (Homo sapiens, UniProt Q92847)", "sequence (Q92847 whole entry)": "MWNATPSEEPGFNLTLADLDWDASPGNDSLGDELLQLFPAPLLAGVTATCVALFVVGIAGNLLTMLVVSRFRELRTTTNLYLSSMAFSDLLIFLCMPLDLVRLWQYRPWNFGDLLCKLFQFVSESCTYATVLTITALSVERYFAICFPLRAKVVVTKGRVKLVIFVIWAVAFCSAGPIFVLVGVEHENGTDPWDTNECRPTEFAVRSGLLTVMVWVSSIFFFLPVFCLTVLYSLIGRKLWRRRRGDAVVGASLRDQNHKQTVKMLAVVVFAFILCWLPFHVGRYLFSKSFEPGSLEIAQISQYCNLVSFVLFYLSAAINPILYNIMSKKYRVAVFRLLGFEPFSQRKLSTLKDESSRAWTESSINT", "source_text": "Such receptors are disclosed by G. Muccioli et al., J. Endocrinol. 1998, 157, 99-106, by H. Ong et al., in Endocrinology 1998, 139, 432-435 and by R. G. Smith et al., Norm. Res., 1999, 3), 1-8. The binding assay to these receptors may be carried out as disclosed in J. Endocrinol. Invest. 24: RC1-RC3, 2001."}, "[4]": {"target": "T1, hsst4 (Homo sapiens, UniProt P31391)", "T1 construct": "expressed in transfected cells", "T1 sequence (P31391 whole entry)": "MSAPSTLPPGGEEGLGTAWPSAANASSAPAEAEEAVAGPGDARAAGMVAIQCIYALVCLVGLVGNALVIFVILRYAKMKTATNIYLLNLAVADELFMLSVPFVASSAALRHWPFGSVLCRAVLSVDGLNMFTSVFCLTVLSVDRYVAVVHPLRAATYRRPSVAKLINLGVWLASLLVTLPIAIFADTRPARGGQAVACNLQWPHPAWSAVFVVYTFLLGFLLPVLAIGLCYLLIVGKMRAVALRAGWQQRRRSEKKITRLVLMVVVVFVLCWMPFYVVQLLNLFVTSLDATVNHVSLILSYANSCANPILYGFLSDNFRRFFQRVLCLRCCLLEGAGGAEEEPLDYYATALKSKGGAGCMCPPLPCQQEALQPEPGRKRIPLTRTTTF", "assay": "Binding assay, membranes from cell lines expressing hsst4, [125I-Tyr11]-SRIF-14 radioligand", "conditions": "competition binding", "method": "(§1) The experiments are carried out in triplicate."}, "[5]": {"tested_on": "growth hormone release", "assay": "Inhibition of growth hormone (GH) release in rats", "type": "in vivo", "conditions": "s.c., 6 h, anaesthetized rats", "method": "Compound A inhibits the release of growth hormone (GH) in rats. Compound A is administered s.c. to anaesthetized rats. Blood is collected after decapitation 1 h after administration of the compound. The duration of action is estimated on the basis of the inhibition of basal GH secretion 6 h after drug treatment. Hormone levels are measured by RIA 1 h and 6 h after treatment. The ID50-value for the inhibition of the hormone secretion is determined graphically (log-probit) for each experiment and the resulting values are averaged logarithmically."}, "[6]": {"conditions": "diabetic monkeys"}, "[7]": {"tested_on": "blood vessel formation", "assay": "Angiogenesis test in nude mice (SiHa and MDA MB-231 cells)", "type": "in vivo", "conditions": "dose e.g. 0.01 to 1000 μg/kg s.c.", "method": "Compound A also has an inhibiting effect on angiogenesis, as indicated in standard tests, e.g. in nude mice. Briefly, tumor cells (0.1 to 10×10^6 in 0.1 ml) (SiHa cells and MDA MB-231 cells prepared as disclosed in Angiogenesis, Ed. by R. Steiner, P. B. Weisz and R. Langer, 1992, Switzerland) are inoculated intracutaneously. Usually two midventral sites/mouse are injected which are located distant from the main ventral skin vessels so that the background vessel count is low. Control groups receive 0.1 ml 0.02% trypan blue in PBS. 10 days following injection, anesthetized mice are sacrificed by CO2 inhalation. The skin is mounted onto a plastic ring (40 mm diameter) for evaluation by an inverted microscope (Zeiss IM) at 12.5- and 25-fold magnification. As a measure of angiogenesis, vessels are photographed and those are counted that are directly connected with the tumor. In control animals those vessels are counted that are connected to a defined area around the injection site. This area corresponds to the mean area of the dermal tumors. The latter is determined by use of a caliper according to the equation 3.14×r^2. Compound A is administered s.c. either on the day of tumor inoculation or 3 days later. Control animals are vehicle-treated."}, "[8]": {"tested_on": "IGF-1 plasma levels", "assay": "IGF-1 plasma levels in vivo in male rats", "method": "Furthermore, Compound A inhibits IGF-1 plasma levels in vivo as indicated in standard tests using male rats. Briefly, Compound A is administered by osmotic pump implanted s.c. to male rats of a Lewis strain. Blood samples are collected from the retrobulbar plexus using a short anesthesia with e.g. isoflurane."}, "[9]": {"target": "T2, hsst5 (Homo sapiens, UniProt P35346)", "T2 construct": "expressed in transfected cells", "T2 sequence (P35346 whole entry)": "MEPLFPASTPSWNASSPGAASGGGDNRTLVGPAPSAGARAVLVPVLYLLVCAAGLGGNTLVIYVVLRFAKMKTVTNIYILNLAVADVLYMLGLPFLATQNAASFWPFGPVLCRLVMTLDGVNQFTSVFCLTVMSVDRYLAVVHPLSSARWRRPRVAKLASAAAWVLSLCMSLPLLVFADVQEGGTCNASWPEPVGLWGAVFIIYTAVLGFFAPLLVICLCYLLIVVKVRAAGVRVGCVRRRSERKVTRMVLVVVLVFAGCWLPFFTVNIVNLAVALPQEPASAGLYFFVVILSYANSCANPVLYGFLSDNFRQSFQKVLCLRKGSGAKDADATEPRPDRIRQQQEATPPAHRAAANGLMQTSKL", "assay": "Binding assay, membranes from cell lines expressing hsst5, [125I-Tyr11]-SRIF-14 radioligand", "conditions": "competition binding", "method": "as §1"}, "[10]": {"tested_on": "insulin secretion", "assay": "Similar assay for measuring the effect on insulin", "design": "species or system rats", "conditions": "rat, in vivo"}, "[11]": {"target": "T3, hsst3 (Homo sapiens, UniProt P32745)", "T3 construct": "expressed in transfected cells", "T3 sequence (P32745 whole entry)": "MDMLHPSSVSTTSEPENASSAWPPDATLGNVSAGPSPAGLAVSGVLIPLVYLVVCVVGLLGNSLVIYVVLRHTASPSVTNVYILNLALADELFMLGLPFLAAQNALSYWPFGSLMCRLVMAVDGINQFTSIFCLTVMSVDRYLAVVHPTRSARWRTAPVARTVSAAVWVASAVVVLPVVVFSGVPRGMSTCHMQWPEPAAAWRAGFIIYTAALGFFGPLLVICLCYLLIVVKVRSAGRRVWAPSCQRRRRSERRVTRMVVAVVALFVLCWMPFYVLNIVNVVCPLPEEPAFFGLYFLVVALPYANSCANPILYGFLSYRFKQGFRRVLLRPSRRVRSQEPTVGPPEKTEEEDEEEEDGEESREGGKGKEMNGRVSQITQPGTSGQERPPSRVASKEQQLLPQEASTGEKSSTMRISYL", "assay": "Binding assay, membranes from cell lines expressing hsst3, [125I-Tyr11]-SRIF-14 radioligand", "conditions": "competition binding", "method": "as §1"}, "[12]": {"tested_on": "carotid artery neointima", "assay": "Angioplasty, rat model of balloon catheter injury", "type": "in vivo", "conditions": "10 μg/kg/h continuous infusion, 14 days after balloon injury", "method": "Studies on angioplasty are done in the rat model of balloon catheter injury. Balloon catheterization is performed on day 0, essentially as described by Powell et al. (1989). Under Isofluorane anaesthesia, a Fogarty 2F catheter is introduced into the left common carotid artery to obtain a uniform de-endothelialization. The catheter is then removed, a ligature placed around the external carotid to prevent bleeding and the animals allowed to recover. 2 groups of 12 RoRo rats (400 g, approximately 24 weeks old) are used for the study: one control group and one group receiving Compound A and the rats are fully randomized. Compound A is administered by continuous infusion using minipumps at a rate of 10 μg/kg/h starting 2 days before balloon injury […] until the end of the study, 14 days after balloon injury. The rats are then anaesthetized with Isofluorane and perfused with 0.1 M phosphate buffered saline solution (PBS, pH 7.4) and then for 15 min. with 2.5% glutaraldehyde in phosphate buffer (pH 7.4). Carotid arteries are then excised, separated from surrounding tissue and immersed in 0.1 M cacodylate buffer (pH 7.4) containing 7% saccharose and incubated overnight at 4° C. […] The cross-sectional area of the media, neointima and the lumen are evaluated morphometrically by means of an image analysis system (MCID, Toronto, Canada)."}, "[13]": {"tested_on": "GH", "assay": "Monkey studies, inhibition of GH", "type": "in vivo"}, "[14]": {"tested_on": "kidney allograft", "assay": "Chronic allograft rejection, rat kidney allograft model", "type": "in vivo", "conditions": "10 μg/kg/h infusion", "method": "Chronic Allograft Rejection\nThe kidney of a male DA (RT1^a) rat is orthotopically transplanted into a male Lewis (RT1^1) recipient. In total 24 animals are transplanted. All animals are treated with cyclosporine A at 7.5 mg/kg/day per os for 14 days starting on the day of transplantation, to prevent acute cellular rejection. Contralateral nephrectomy is not performed. Each experimental group treated with a distinct dose of Compound A or placebo comprises six animals. Starting 14 days after transplantation, the recipient animals are treated up to 112 days by infusion with Compound A or receive placebo. At 14 days after transplantation organ perfusion is measured by MRI. This is repeated at days 53-64 after transplantation and at the end of the experiment. The animals are then autopsied."}, "[15]": {"target": "T4, hsst2 (Homo sapiens, UniProt P30874)", "T4 construct": "expressed in transfected cells", "T4 sequence (P30874 whole entry)": "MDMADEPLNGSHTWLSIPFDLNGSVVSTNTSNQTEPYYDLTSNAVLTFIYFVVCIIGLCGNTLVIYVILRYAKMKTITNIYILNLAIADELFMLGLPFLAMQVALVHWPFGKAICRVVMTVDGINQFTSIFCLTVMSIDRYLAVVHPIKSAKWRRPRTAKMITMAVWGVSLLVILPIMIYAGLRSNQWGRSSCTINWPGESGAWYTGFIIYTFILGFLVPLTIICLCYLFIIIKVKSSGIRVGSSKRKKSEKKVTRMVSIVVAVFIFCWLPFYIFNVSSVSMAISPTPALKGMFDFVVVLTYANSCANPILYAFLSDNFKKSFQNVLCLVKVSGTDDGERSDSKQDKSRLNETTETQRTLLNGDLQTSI", "assay": "Binding assay, membranes from cell lines expressing hsst2, [125I-Tyr11]-SRIF-14 radioligand", "conditions": "competition binding", "method": "as §1"}, "[16]": {"tested_on": "heart allograft", "assay": "Heterotopic mouse heart allotransplantation model", "type": "in vivo"}, "[17]": {"tested_on": "carotid artery grafts", "assay": "Carotid artery loop transplantation model", "type": "in vivo, mice", "conditions": "50 μg/kg/h s.c. mini-pump, grafts harvested at 30 days, compared with non-treated animals", "method": "Compound A has also been tested in a carotid artery loop transplantation model using B10.A (2R) (H-2h^2) mice as donor and B10.BR(H-2^k) mice as recipient. In brief, the donor carotid artery is transplanted paratopically as a loop into the recipient's carotid artery by an end-to-side anastomosis. A mini-pump is placed s.c. immediately after transplantation that delivers Compound A at a rate of 50 μg/kg/h. Carotid artery grafts are harvested at 30 days after transplantation to analyse vascular remodeling e.g. by morphometric analysis of Verhoeff elastin stained paraffin sections using a computer-assisted system."}, "[18]": {"tested_on": "cultured pituitary cells", "assay": "Inhibition of GH release in vitro from cultured pituitary cells", "type": "cell-based, rats", "conditions": "rat anterior pituitary cells, three hours, in the presence of 3×10^−10 M growth hormone releasing factor, RIA", "method": "For example, anterior pituitary glands from adult male rats are cut into small pieces and dispersed using 0.1% trypsin in 20 mM HEPES buffer. The dispersed cells are cultured for four days in MEM (Gibco) supplemented with 5% fetal calf serum, 5% horse serum, 1 mM NaHCO3, 2.5 nM dexamethasone, […] and 20 U/ml Pen/Strep. On the day of the experiment the attached cells are washed two times with Krebs-Ringer medium buffered with 20 mM HEPES and supplemented with 5 mM glucose and 0.2% BSA. Subsequently the cells are incubated for three hours with Compound A in the presence of 3×10^−10 M growth hormone releasing factor. The amount of growth hormone released into the medium is measured by RIA. Compound A has an IC50 of 0.4 nM in this assay."}}, "note": "*1 amine or outer side, *2 acyl side, *3 side chain or, on linkers, in order; H or OH if unused. Where a SMILES comes first, the peptide text is derived from it. Side-chain parts run from the residue outwards. [ ]: non-standard residue; d: D form. The star is where a group is joined. Ethylenediamine = C(CN[*:2])N[*:1]; Hyp = O=C(O)[C@@H]1C[C@@H](O)CN1; Phg = N[C@H](C(=O)O)c1ccccc1; CO = O=C([*:1])[*:2]; Bn = c1ccc(C*)cc1"}
{"smiles": "NCCCC[C@@H]1NC(=O)[C@@H](Cc2c[nH]c3ccccc23)NC(=O)[C@H](c2ccccc2)NC(=O)[C@@H]2C[C@@H](OC(=O)NCCN)CN2C(=O)[C@H](Cc2ccccc2)NC(=O)[C@H](Cc2ccc(OCc3ccccc3)cc2)NC1=O", "note": "[Compound A, cyclo[{4-(NH2—C2H4—NH—CO—O—)Pro}-Phg-DTrp-Lys-Tyr(4-Bzl)-Phe]] (cyclo([Hyp]([CO-Ethylenediamine])[Phg][dW]KY(Bn)F))", "values": [{"measurement": "half-life", "setting": "[1]", "value": "15 to 30", "unit": "h"}, {"measurement": "IC50", "setting": "[2]", "value": 9.3, "unit": "nM"}, {"measurement": "Displacement of 125I-Tyr-Ala-hexarelin", "setting": "[3]", "value": "displaces ^125I-Tyr-Ala-hexarelin"}, {"measurement": "IC50", "setting": "[4]", "value": "> 100", "unit": "nM"}, {"measurement": "Mean basal ID50, inhibition of GH secretion", "setting": "[5]", "value": 5.5, "unit": "µg/kg"}, {"measurement": "Antidiabetic/insulin-sensitizing effect", "setting": "[6]", "value": "potent antidiabetic/insulin-sensitizing effect"}, {"measurement": "Blood vessel formation", "setting": "[7]", "value": "inhibits blood vessel formation"}, {"measurement": "Inhibition of IGF-1 plasma levels", "setting": "[8]; after 14 days of treatment with 10 μg/kg/h, osmotic pump s.c., male Lewis rats", "value": "more than 60%"}, {"measurement": "Lowering of IGF-1 plasma levels on continuous treatment", "setting": "[8]; rat recipients of aorta or kidney allografts, continuous infusion 10 μg/kg/h up to 126 days", "value": "significant and persistent lowering of IGF-1 plasma levels"}, {"measurement": "IC50", "setting": "[9]", "value": 0.16, "unit": "nM"}, {"measurement": "Effect on insulin secretion", "setting": "[10]", "value": "inhibits insulin secretion"}, {"measurement": "IC50", "setting": "[11]", "value": 1.5, "unit": "nM"}, {"measurement": "Neointimal thickening", "setting": "[12]", "value": "inhibits neointimal thickening significantly"}, {"measurement": "Inhibition of GH", "setting": "[13]", "value": "potent and efficacious inhibition of GH"}, {"measurement": "Chronic rejection related vascular remodelling and graft infiltration", "setting": "[14]", "value": "reduction in chronic rejection related vascular remodelling and graft infiltration"}, {"measurement": "IGF-1 levels", "setting": "[14]", "value": "marked and persistent drop of IGF-1 levels"}, {"measurement": "Organ perfusion (MRI)", "setting": "[14]", "value": "improved organ perfusion"}, {"measurement": "IC50", "setting": "[15]", "value": 1, "unit": "nM"}, {"measurement": "Vascular remodelling and graft infiltration", "setting": "[16]", "value": "beneficial effects on vascular remodelling as well as in graft infiltration"}, {"measurement": "Neointimal formation", "setting": "[17]", "value": "inhibits neointimal formation"}, {"measurement": "IC50", "setting": "[18]", "value": 0.4, "unit": "nM"}]}
